Experimental findings from patent US11040981B2, “Pyrrolotriazine compounds and methods of inhibiting TAM kinases” (Syros Pharmaceuticals, Inc., priority 2017, dated 2021) are described below.

Where only a bound is given, the exact number is not on record here.

The target in one assay is T1, FLT3 (Homo sapiens, UniProt P36888).
T1 sequence (P36888 27-993): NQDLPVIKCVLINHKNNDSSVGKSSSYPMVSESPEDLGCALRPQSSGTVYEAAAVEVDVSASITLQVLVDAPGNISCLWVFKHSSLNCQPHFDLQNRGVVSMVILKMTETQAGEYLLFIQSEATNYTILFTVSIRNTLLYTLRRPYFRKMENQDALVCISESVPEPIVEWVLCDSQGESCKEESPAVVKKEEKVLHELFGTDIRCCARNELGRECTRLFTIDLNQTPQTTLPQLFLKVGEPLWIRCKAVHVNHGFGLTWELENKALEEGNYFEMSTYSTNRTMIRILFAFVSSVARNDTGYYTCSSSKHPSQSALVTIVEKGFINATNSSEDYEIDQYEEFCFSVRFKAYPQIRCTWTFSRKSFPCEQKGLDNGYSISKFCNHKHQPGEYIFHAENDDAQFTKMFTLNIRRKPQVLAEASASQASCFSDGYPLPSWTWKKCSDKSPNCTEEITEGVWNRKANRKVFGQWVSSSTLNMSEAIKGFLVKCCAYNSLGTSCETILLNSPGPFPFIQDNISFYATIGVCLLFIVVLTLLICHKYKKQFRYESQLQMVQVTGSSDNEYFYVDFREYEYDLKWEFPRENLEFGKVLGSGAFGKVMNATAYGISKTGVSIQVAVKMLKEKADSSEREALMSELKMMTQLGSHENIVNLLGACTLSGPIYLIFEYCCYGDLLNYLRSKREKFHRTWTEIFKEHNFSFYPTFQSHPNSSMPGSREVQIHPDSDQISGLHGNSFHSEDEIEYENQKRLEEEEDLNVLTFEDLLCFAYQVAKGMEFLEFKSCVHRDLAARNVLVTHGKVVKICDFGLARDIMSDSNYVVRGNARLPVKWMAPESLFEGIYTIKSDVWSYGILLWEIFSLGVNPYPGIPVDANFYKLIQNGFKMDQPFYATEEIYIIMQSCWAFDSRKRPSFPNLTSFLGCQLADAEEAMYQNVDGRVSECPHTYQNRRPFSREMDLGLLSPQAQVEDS
Kind of assay: TR-FRET kinase activity assay, FLT3. Type of assay: biochemical. The following applies: ATP at Km, 60 minutes. The essentials:
(§1)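 Enzyme + labelled peptide + cpd premixed; ATP at per-enzyme Km starts rxn. 60 min RT, HEPES pH 7.5/MgCl2/EGTA/Brij 35/DTT buffer. Stop 12.5 mM EDTA, Eu phospho-Ab 30 min dark, TR-FRET read → IC50.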
On the technique in general: TR-FRET usually uses a lanthanide donor and a delayed reading to cut background.

In a further assay the target is T2, AXL (Homo sapiens, UniProt P30530).
T2 sequence (P30530 26-894): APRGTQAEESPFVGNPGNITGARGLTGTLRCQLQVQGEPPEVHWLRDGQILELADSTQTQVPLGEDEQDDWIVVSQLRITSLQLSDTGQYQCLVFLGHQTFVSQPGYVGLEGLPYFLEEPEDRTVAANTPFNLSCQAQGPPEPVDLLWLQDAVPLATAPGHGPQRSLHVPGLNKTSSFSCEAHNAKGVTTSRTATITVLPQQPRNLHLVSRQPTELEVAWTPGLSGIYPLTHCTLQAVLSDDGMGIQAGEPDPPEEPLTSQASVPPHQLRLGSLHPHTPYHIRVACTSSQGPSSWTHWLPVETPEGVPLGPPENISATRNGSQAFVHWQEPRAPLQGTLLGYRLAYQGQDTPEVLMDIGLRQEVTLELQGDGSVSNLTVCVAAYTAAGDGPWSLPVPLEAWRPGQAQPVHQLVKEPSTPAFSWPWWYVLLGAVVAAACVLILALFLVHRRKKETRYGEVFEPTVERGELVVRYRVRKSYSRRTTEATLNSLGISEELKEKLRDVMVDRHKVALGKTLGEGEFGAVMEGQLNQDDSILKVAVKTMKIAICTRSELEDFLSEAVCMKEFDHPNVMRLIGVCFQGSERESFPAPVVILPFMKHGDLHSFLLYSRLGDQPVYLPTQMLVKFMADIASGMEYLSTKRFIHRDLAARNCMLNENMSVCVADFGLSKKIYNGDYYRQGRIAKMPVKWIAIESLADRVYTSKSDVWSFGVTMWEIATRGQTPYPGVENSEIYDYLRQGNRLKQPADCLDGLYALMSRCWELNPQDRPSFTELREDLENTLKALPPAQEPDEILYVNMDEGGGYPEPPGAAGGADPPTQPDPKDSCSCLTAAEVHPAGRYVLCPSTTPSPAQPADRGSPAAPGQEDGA
Kind of assay: TR-FRET kinase activity assay, AXL. Type of assay: biochemical. The conditions noted are these: ATP at Km, 60 minutes. The gist of the method: as §1

For orientation: IC50 means the concentration that inhibits the measured activity by half. Read a low IC50 as greater potency. As to `CN1CCN(Cc2ccc(-c3cc(C4CCC(O)CC4)n4nc(NC5CCC5(C)C)ncc34)cc2)CC1` (mixture of isomers) [Compound 121], the IC50 at FLT3 and against AXL was 100 to 1000 nM each time.
For the compound `COCC(C)Nc1ncc2c(C3CCN(C(C)=O)C3)cc(C3CCC(O)CC3)n2n1` (mixture of isomers) [Compound 383], the half-maximal inhibitory concentration (IC50) against FLT3 was 1000 to 10000 nM; at AXL, 100 to 1000 nM.
Consider `COC[C@H](C)Nc1ncc2c(-c3ccc(CN4CCN(C)CC4)cc3)cc([C@H]3CC[C@H](O)CC3)n2n1` (single isomer, unassigned) [Compound 124], for which the concentration for half-maximal inhibition (IC50) is 100 to 1000 nM on FLT3 and no more than 100 nM at AXL.
As to `CC[C@H](C)Nc1ncc2c(-c3cncc(S(C)(=O)=O)c3)cc([C@H]3CC[C@H](O)CC3)n2n1` [Compound 119], the IC50 at FLT3 was 1000 to 10000 nM; against AXL it was 100 to 1000 nM.
Take `CC[C@H](C)Nc1ncc2c(-c3cncc(S(C)(=O)=O)c3)cc([C@H]3CC[C@@H](O)CC3)n2n1` [Compound 120]: the IC50 on FLT3 is 1000 to 10000 nM; against AXL, 100 to 1000 nM.
The matching figures for `CCCCC[C@H](C)Nc1ncc2c(C3=CCC(C(=O)O)CC3)cc([C@H]3CC[C@H](O)CC3)n2n1` (stereo partly drawn) [Compound 122, 4-(2-((S)-heptan-2-ylamino)-7-((trans)-4-hydroxycyclohexyl)pyrrolo[2,1-f][1,2,4]triazin-5-yl)cyclohex-3-enecarboxylic acid]: 100 to 1000 nM and no more than 100 nM.
`CCC(C)Nc1ncc2c(C)cc(C3CCC(O)CC3)n2n1` (stereo not drawn) [Compound 123]: the IC50 on FLT3 and at AXL was 1000 to 10000 nM in each case.
For the compound `CCCCC[C@H](C)Nc1ncc2c([C@H]3CC[C@@H](C(=O)O)CC3)cc([C@H]3CC[C@H](O)CC3)n2n1` [Compound 125, (cis)-4-(2-((S)-heptan-2-ylamino)-7-((trans)-4-hydroxycyclohexyl)pyrrolo[2,1-f][1,2,4]triazin-5-yl)cyclohexanecarboxylic acid], the concentration for half-maximal inhibition (IC50) on FLT3 fell in the range of 1000 to 10000 nM; on AXL, 100 to 1000 nM.
As for `C[C@@H](CC(F)(F)F)Nc1ncc2c(-c3ccnc(N4CCOCC4)c3)cc([C@H]3CC[C@H](O)CC3)n2n1` [Compound 346], the half-inhibitory concentration (IC50) against FLT3 and against AXL was no more than 100 nM in each case.
As to `CNC(=O)c1ncc(-c2cc([C@H]3CC[C@H](O)CC3)n3nc(N[C@@H](C)CC(F)(F)F)ncc23)cn1` [Compound 347], the IC50 on FLT3 and on AXL was no more than 100 nM throughout.
On to `COC[C@H](C)Nc1ncc2c(-c3cnn([C@H]4CCNC4=O)c3)cc([C@H]3CC[C@H](O)CC3)n2n1` [Compound 348], for which the IC50 was 100 to 1000 nM against FLT3 and no more than 100 nM at AXL.
As for `COC[C@H](C)Nc1ncc2c(-c3cc([C@H]4CC[C@H](O)CC4)n4nc(N[C@@H](C)COC)ncc34)cc([C@H]3CC[C@H](O)CC3)n2n1` [Compound 349], the IC50 on FLT3 and at AXL was 1000 to 10000 nM throughout.
With `CC(C)Nc1ncc2c(-c3ccnc(N4CCOCC4)c3)cc([C@H]3CC[C@H](O)CC3)n2n1` [Compound 350], the 50% inhibitory concentration (IC50) against FLT3 and at AXL was no more than 100 nM throughout.
Consider `C[C@@H](CC(F)F)Nc1ncc2c(-c3cnn(C4COC4)c3)cc([C@H]3CC[C@H](O)CC3)n2n1` [Compound 351], for which the concentration for half-maximal inhibition (IC50) against FLT3 and against AXL was no more than 100 nM throughout.
In the case of `CC(CC(F)F)Nc1ncc2c(-c3ccc(CN4CCN(C)CC4)cc3)cc(C3CCC(O)CC3)n2n1` (stereo not drawn) [Compound 352], the half-maximal inhibitory concentration (IC50) on FLT3 and against AXL was no more than 100 nM in each case.
Regarding `CNC(=O)c1cc(-c2cc([C@H]3CC[C@H](O)CC3)n3nc(N[C@@H](C)CC(F)(F)F)ncc23)cc(C)n1` [Compound 353], the IC50 on FLT3 and on AXL was 100 to 1000 nM each time.
With `CNc1cc(-c2cc([C@H]3CC[C@H](O)CC3)n3nc(N[C@@H](C)COC)ncc23)ccn1` [Compound 354], the values for the IC50 against FLT3 and at AXL were 100 to 1000 nM and no more than 100 nM, respectively.
With `COC[C@H](C)Nc1ncc2c(-c3ccnc(N4CCOCC4)c3)cc([C@H]3CC[C@H](O)CC3)n2n1` [Compound 355], the concentration for half-maximal inhibition (IC50) against FLT3 and against AXL was no more than 100 nM throughout.
